PMC6441007, “Semi-solid prodrug nanoparticles for long-acting delivery of water-soluble antiretroviral drugs within combination HIV therapies” (Nature Communications, 2019)
In brackets after ≈: the same amount, converted by molar mass. Like-named read-outs stand apart in the source and are kept apart here.

Tests used:
[1] = Prodrug hydrolysis in undiluted human plasma (HPLC, half-life); format: in vitro ADME; settings: 1 mM, 37 °C
Description: (§1) As expected, rapid enzyme-catalysed hydrolysis of the 5’-carbonate group of 1–8 was observed, evident from the short plasma half-lives (<12 h) and relatively rapid initial hydrolysis rates in liver S9 and muscle S9 fractions (evaluated over a timeframe in which the carbamate masking group remains intact). […] Although chemically similar to capecitabine at the carbamate moiety, the plasma half-lives of longer-chain carbamates 12–16 were generally shorter. Initial hydrolysis rates in liver and muscle S9 fractions were within a sixfold range of capecitabine as measured in our hands, with the longer C5 to C8 analogues (13–16) undergoing hydrolysis most efficiently in liver S9 (Supplementary Figure 21). […] In all cases, the hydrolysis of the carbonate moiety of 1–8 was considerably faster in liver than muscle.
Reaction mixtures containing pooled mixed gender human plasma (Bioreclamation) were pre-incubated at 37 °C for 5 min. Reactions were initiated by the addition of prodrugs 1–8 (1 mM + 5% DMSO). […] The supernatant was diluted 10-fold into phosphate buffer (0.1 M, pH 7.4) and analysed by HPLC method described within Supplementary Information (monitoring starting material depletion at 305 nm). […]
323 buffer (0.1 M, pH 7.4) and analyzed by the HPLC method described above monitoring […]

[2] = Initial rate of prodrug hydrolysis in human liver S9 (HPLC); format: in vitro ADME; settings: for Hydrolysis liver: IVIVE model input, determined experimentally
Description: as §1
(§2) Reaction mixtures containing mixed gender human skeletal muscle S9 (10.47 mg mL^−1, Bioreclamation) or phosphate buffer (0.1 M, pH 7.4) and pooled, mixed gender liver S9 (2.0 mg mL^−1, Xenotech) were pre-incubated at 37 °C for 5 min. Reactions were initiated by the addition of prodrugs 1–8 (1 mM + 5% DMSO). After incubation at 37 °C, aliquots were taken at time points measuring initial rate (Muscle S9: 1–3: 0.5, 10, 20, 30, 40, 50, and 60 min; 4: 0.5, 20, 40, 60, 80, 100, and 120 min; 5–6: 0.5, 30, 60, 90, 150, and 180 min; 7–8: 0.5 min, 30 min, 1 h, 3 h, 4 h, 5 h) (Liver S9: 1–2: 0.5, 1, 2, 3, 4, and 5 min; 3–6: 0.5, 2, 4, 6, 8, and 10 min; 7–8: 0.5, 5, 10, 15, 20, 25, 30, and 60 min). These aliquots were quenched in two volumes of ice-cold methanol. The quenched aliquots were then centrifuged at 16,873 × g for 5 min. The supernatant was diluted 10-fold into phosphate buffer (0.1 M, pH 7.4) and analysed by HPLC method described within Supplementary Information (monitoring starting material depletion at 305 nm). […]

[3] = Initial rate of prodrug hydrolysis in human skeletal muscle S9 (HPLC); format: in vitro ADME; settings: for Hydrolysis muscle: IVIVE model input, determined experimentally
Description: as §1, §2

[4] = IVIVE model input parameter (Supplementary Table 4); source not given; cited from earlier work
[5] = cited from earlier work
[6] = 25 °C; cited from earlier work
viral replication = settings: plasma concentration; cited from earlier work
[7] = tested on: human immunodeficiency virus type 1 reverse transcriptase; settings: intracellular FTC-TP; cited from earlier work
[8] = oral 400mg FTC, human clinical data, mean (minimum-maximum)
[9] = oral FTC at steady state, average of 3 independent clinical studies, mean (± SD), ref Supplementary References 3-5

**Q.** For `CCCCCCOC(=O)Nc1nc(=O)n([C@@H]2CS[C@H](COC(=O)OCCCCCC)O2)cc1F` [prodrug 6, Hexyl (5-fluoro-1-((2R,5S)-2-((((hexyloxy)carbonyl)oxy)methyl)-1,3-oxathiolan-5-yl)-2-oxo-1,2-dihydropyrimidin-4-yl)carbamate], which melting point is on record?
**A.** 110 °C

**Q.** For `CCCCCOC(=O)Nc1nc(=O)n([C@@H]2CS[C@H](COC(=O)OCCCCC)O2)cc1F` [prodrug 5, Pentyl (5-fluoro-2-oxo-1-((2R,5S)-2-((((pentyloxy)carbonyl)oxy)methyl)-1,3-oxathiolan-5-yl)-1,2-dihydropyrimidin-4-yl)carbamate], which melting point is on record?
**A.** 103 to 106 °C

**Q.** With `CCCOC(=O)Nc1nc(=O)n([C@@H]2CS[C@H](CO)O2)cc1F` [prodrug 11, Propyl (5-fluoro-1-((2R,5S)-2-(hydroxymethyl)-1,3-oxathiolan-5-yl)-2-oxo-1,2-dihydropyrimidin-4-yl)carbamate] as the compound, how does the melting point read?
**A.** 82 to 86 °C

**Q.** For `CCOC(=O)Nc1nc(=O)n([C@@H]2CS[C@H](COC(=O)OCC)O2)cc1F` [prodrug 2, Ethyl (1-((2R,5S)-2-(((ethoxycarbonyl)oxy)methyl)-1,3-oxathiolan-5-yl)-5-fluoro-2-oxo-1,2-dihydropyrimidin-4-yl)carbamate], which “plasma half-life (hydrolysis of 5'-carbonate moiety)” value [1] is on record?
**A.** shortest

**Q.** Which melting point does the source give for `COC(=O)Nc1nc(=O)n([C@@H]2CS[C@H](COC(=O)OC)O2)cc1F` [prodrug 1, Methyl (5-fluoro-1-((2R,5S)-2-(((methoxycarbonyl)oxy)methyl)-1,3-oxathiolan-5-yl)-2-oxo-1,2-dihydropyrimidin-4-yl)carbamate] here?
**A.** 97 to 103 °C

**Q.** Which melting point does the source give for `CCCCCCOC(=O)Nc1nc(=O)n([C@@H]2CS[C@H](CO)O2)cc1F` [prodrug 14, Hexyl (5-fluoro-1-((2R,5S)-2-(hydroxymethyl)-1,3-oxathiolan-5-yl)-2-oxo-1,2-dihydropyrimidin-4-yl)carbamate] here?
**A.** 46 to 49 °C

**Q.** With `COC(=O)Nc1nc(=O)n([C@@H]2CS[C@H](CO)O2)cc1F` [prodrug 9, Methyl (5-fluoro-1-((2R,5S)-2-(hydroxymethyl)-1,3-oxathiolan-5-yl)-2-oxo-1,2-dihydropyrimidin-4-yl)carbamate] as the compound, how does the melting point read?
**A.** 85 to 89 °C

**Q.** Which melting point does the source give for `CCCCCOC(=O)Nc1nc(=O)n([C@@H]2CS[C@H](CO)O2)cc1F` [prodrug 13, Pentyl (5-fluoro-1-((2R,5S)-2-(hydroxymethyl)-1,3-oxathiolan-5-yl)-2-oxo-1,2-dihydropyrimidin-4-yl)carbamate] here?
**A.** 44 to 47 °C

**Q.** With `CCCCCCCCOC(=O)Nc1nc(=O)n([C@@H]2CS[C@H](COC(=O)OCCCCCCCC)O2)cc1F` [prodrug 8, Octyl (5-fluoro-1-((2R,5S)-2-((((octyloxy)carbonyl)oxy)methyl)-1,3-oxathiolan-5-yl)-2-oxo-1,2-dihydropyrimidin-4-yl)carbamate] as the compound, how does the Hydrolysis liver [2] read?
**A.** 0.0694 h⁻¹

**Q.** What about the Hydrolysis muscle [3] of the same compound?
**A.** 0.0067 h⁻¹

**Q.** Which melting point does the source give for `CCCCCCCOC(=O)Nc1nc(=O)n([C@@H]2CS[C@H](CO)O2)cc1F` [prodrug 15, Heptyl (5-fluoro-1-((2R,5S)-2-(hydroxymethyl)-1,3-oxathiolan-5-yl)-2-oxo-1,2-dihydropyrimidin-4-yl)carbamate] here?
**A.** 46 °C

**Q.** For `Nc1nc(=O)n([C@@H]2CS[C@H](CO)O2)cc1F` [FTC, emtricitabine], which “Plasma Cl” value [4] is on record?
**A.** 19.35 L/h

**Q.** What about the “AUC, observed” value [5, 8] of the same compound?
**A.** 16484 (11524-21388) ng/h/mL

**Q.** What about the “Cmax, observed” value [5, 8] of the same compound?
**A.** 2968 (1582-4165) ng/mL

**Q.** What about the “Cmin, observed” value [5, 8] of the same compound?
**A.** 63 (48-134) ng/mL

**Q.** And the “AUC, observed” value [5, 9]?
**A.** 9100 (± 1646) ng/h/mL

**Q.** And the “Cmax, observed” value [5, 9]?
**A.** 1773 (± 46.1) ng/mL

**Q.** And the “Cmin, observed” value [5, 9]?
**A.** 67 (± 25) ng/mL

**Q.** And the water solubility [6]?
**A.** 112 mg/mL (≈ 453 mM)

**Q.** What about the “concentration inhibiting 90% of viral replication (IC90)” value (viral replication) of the same compound?
**A.** 0.05 µg/mL

**Q.** With `Nc1nc(=O)n([C@@H]2CS[C@H](COP(=O)(O)OP(=O)(O)OP(=O)(O)O)O2)cc1F` [FTC-TP, FTC triphosphate] as the compound, how does the “intracellular half-maximal inhibitory concentration (IC50)” value [7] read?
**A.** 150 fmol per 10^6 cells

**Q.** What does the source list for `CCCCOC(=O)Nc1nc(=O)n([C@@H]2CS[C@H](CO)O2)cc1F` [prodrug 12, Butyl (5-fluoro-1-((2R,5S)-2-(hydroxymethyl)-1,3-oxathiolan-5-yl)-2-oxo-1,2-dihydropyrimidin-4-yl)carbamate]?
**A.** Hydrolysis liver [2]: 0.0125 h⁻¹; Hydrolysis muscle [3]: 0.001 h⁻¹; melting point: 47 °C

**Q.** For `CCCCCCCCOC(=O)Nc1nc(=O)n([C@@H]2CS[C@H](CO)O2)cc1F` [prodrug 16, Octyl (5-fluoro-1-((2R,5S)-2-(hydroxymethyl)-1,3-oxathiolan-5-yl)-2-oxo-1,2-dihydropyrimidin-4-yl)carbamate], which Hydrolysis liver [2] is on record?
**A.** 0.0282 h⁻¹

**Q.** And the Hydrolysis muscle [3]?
**A.** 0.004 h⁻¹

**Q.** With `CCCCOC(=O)Nc1nc(=O)n([C@@H]2CS[C@H](COC(=O)OCCCC)O2)cc1F` [prodrug 4, Butyl (1-((2R,5S)-2-(((butoxycarbonyl)oxy)methyl)-1,3-oxathiolan-5-yl)-5-fluoro-2-oxo-1,2-dihydropyrimidin-4-yl)carbamate] as the compound, how does the Hydrolysis liver [2] read?
**A.** 0.5786 h⁻¹

**Q.** What about the Hydrolysis muscle [3] of the same compound?
**A.** 0.0290 h⁻¹

**Q.** With `CCCOC(=O)Nc1nc(=O)n([C@@H]2CS[C@H](COC(=O)OCCC)O2)cc1F` [prodrug 3, Propyl (5-fluoro-2-oxo-1-((2R,5S)-2-(((propoxycarbonyl)oxy)methyl)-1,3-oxathiolan-5-yl)-1,2-dihydropyrimidin-4-yl)carbamate] as the compound, how does the “plasma half-life (hydrolysis of 5'-carbonate moiety)” value [1] read?
**A.** shortest

**Q.** And the “5'-carbonate hydrolysis rate in liver S9” value ([2]; 1 mM, 37 °C, across series 1-8)?
**A.** maximum

**Q.** And the “5'-carbonate hydrolysis rate in muscle S9” value ([3]; 1 mM, 37 °C, across series 1-8)?
**A.** maximum

**Q.** And the melting point?
**A.** 102 to 107 °C
